Measurements reported in paper PMC7287874 (2020).
One block for each compound: values may come before it.

Tests used:
[1] = system: GR wild type (xpt-pbuX guanine riboswitch aptamer) (RNA, riboswitch) GGACAUAUAAUCGCGUGGAUAUGGCACGCAAGUUUCUACCGGGCACCGUAAAUGUCCGACUAUGUCCA; test: ITC; conditions: 100 mM KCl, 20 mM MgCl2, 50 mM K-HEPES, pH 7.5, 25 °C; for KD: single-site fit; for binding: no binding, highest concentration for this compound not stated
[2] = system: GR RNA, crystallized (RNA, riboswitch) GGACAUAUAAUCGCGUGGAUAUGGCACGCAAGUUUCUACCGGGCACCGUAAAUGUCCGACUAUGUCC; test: X-ray crystallography; conditions: cobalt hexammine 30–50 mM, ammonium acetate 600–650 mM, 10 mM K-HEPES pH 7.5, PEG 3000, 24 °C
[3] = system: GR(A19C-U77G) (RNA, riboswitch) GGACCUAUAAUCGCGUGGAUAUGGCACGCAAGUUUCUACCGGGCACCGUAAAUGUCCGACUAGGUCCA; test: ITC; conditions: 100 mM KCl, 20 mM MgCl2, 50 mM K-HEPES; pH 7.5, 25 °C, single-site fit
[4] = system: GR(C74A) (RNA, riboswitch) GGACAUAUAAUCGCGUGGAUAUGGCACGCAAGUUUCUACCGGGCACCGUAAAUGUCCGAAUAUGUCCA; test: ITC; conditions: 100 mM KCl, 20 mM MgCl2, 50 mM K-HEPES; pH 7.5, 25 °C, single-site fit
[5] = system: GR A19U C74U U77A (RNA, riboswitch) GGACUUAUAAUCGCGUGGAUAUGGCACGCAAGUUUCUACCGGGCACCGUAAAUGUCCGAUUAAGUCCA; test: ITC; conditions: 100 mM KCl, 20 mM MgCl2, 50 mM K-HEPES; pH 7.5, 25 °C, single-site fit
[6] = system: GR A19G C74U U77C (RNA, riboswitch) GGACGUAUAAUCGCGUGGAUAUGGCACGCAAGUUUCUACCGGGCACCGUAAAUGUCCGAUUACGUCCA; test: ITC; conditions: 100 mM KCl, 20 mM MgCl2, 50 mM K-HEPES; pH 7.5, 25 °C, single-site fit
[7] = system: GR A19U U77A (RNA, riboswitch) GGACUUAUAAUCGCGUGGAUAUGGCACGCAAGUUUCUACCGGGCACCGUAAAUGUCCGACUAAGUCCA; test: ITC; conditions: 100 mM KCl, 20 mM MgCl2, 50 mM K-HEPES; pH 7.5, 25 °C, single-site fit
[8] = system: GR A19G U77 (RNA, riboswitch) GGACGUAUAAUCGCGUGGAUAUGGCACGCAAGUUUCUACCGGGCACCGUAAAUGUCCGACUAUGUCCA; test: ITC; conditions: 100 mM KCl, 20 mM MgCl2, 50 mM K-HEPES; pH 7.5, 25 °C, single-site fit
[9] = system: GR(C74G) (RNA, riboswitch) GGACAUAUAAUCGCGUGGAUAUGGCACGCAAGUUUCUACCGGGCACCGUAAAUGUCCGAGUAUGUCCA; test: ITC; conditions: 100 mM KCl, 20 mM MgCl2, 50 mM K-HEPES; pH 7.5, 25 °C, single-site fit
[10] = system: GR A19C C74U U77G (RNA, riboswitch) GGACCUAUAAUCGCGUGGAUAUGGCACGCAAGUUUCUACCGGGCACCGUAAAUGUCCGAUUAGGUCCA; test: ITC; conditions: 100 mM KCl, 20 mM MgCl2, 50 mM K-HEPES; pH 7.5, 25 °C, single-site fit
[11] = system: GR A19G U77C (RNA, riboswitch) GGACGUAUAAUCGCGUGGAUAUGGCACGCAAGUUUCUACCGGGCACCGUAAAUGUCCGACUACGUCCA; test: ITC; conditions: 100 mM KCl, 20 mM MgCl2, 50 mM K-HEPES; pH 7.5, 25 °C, single-site fit
[12] = system: GR(C74U) (RNA, riboswitch) GGACAUAUAAUCGCGUGGAUAUGGCACGCAAGUUUCUACCGGGCACCGUAAAUGUCCGAUUAUGUCCA; test: ITC; conditions: 100 mM KCl, 20 mM MgCl2, 50 mM K-HEPES; pH 7.5, 25 °C, single-site fit

Compound: CC(C)(C)C(=O)Nc1nc2[nH]cnc2c(=O)[nH]1
KD [1]: 230,000 ± 10,000 nM

Compound: CC(C)C(=O)Nc1nc2[nH]cnc2c(=O)[nH]1
KD [1]: 7.4 ± 0.5 nM
KD [3]: 4.5 ± 2.0 nM

Compound: CC1CC(O)n2c(nc3[nH]cnc3c2=O)N1 (stereo not shown)
KD [1]: 79,000 ± 1000 nM

Compound: COc1nc(N)nc2[nH]cnc12
KD [1]: 6400 ± 400 nM

Compound: NS(=O)(=O)c1ccc(Nc2nc(OCC3CCCCC3)c3nc[nH]c3n2)cc1
KD [1]: 5600 ± 600 nM

Compound: Nc1nc2[nH]c(N)nc2c(=O)[nH]1
KD [1]: 36 ± 13 nM
binding [2]: yes

Compound: Nc1nc2[nH]cnc2c(=O)[nH]1
KD [1]: 2.1 ± 0.7 nM
KD [3]: 0.85 ± 0.31 nM
binding ([2]; 1.6 Å): yes

Compound: Nc1nc2c(=O)[nH]cnc2[nH]1
KD [1]: 14,000 ± 1000 nM

Compound: O=c1c2[nH]cnc2nc2ncccn12
binding [1]: no

Further lines, results first:

KD [1]: 300 ± 10 nM
binding [2]: yes
Compound: CC(=O)Nc1nc2[nH]cnc2c(=O)[nH]1

KD [1]: 17,000 ± 1000 nM
Compound: CNc1nc2[nH]cnc2c(=O)[nH]1

KD [1]: 340 ± 30 nM
Compound: Nc1nc(Cl)c2[nH]cnc2n1

KD [1]: 25,000 ± 3000 nM
Compound: Nc1nc(NC2CC2)c2nc[nH]c2n1

KD [1]: 17,000 ± 1000 nM
binding [2]: yes
Compound: Nc1nc(OCC2CCCCC2)c2[nH]cnc2n1

binding [1]: no
Compound: Nc1nc(OCc2ccccc2)c2[nH]cnc2n1

KD [1]: 10 ± 4 nM
Compound: Nc1nc2[nH]c(O)nc2c(=O)[nH]1

KD [4]: 85,000 ± 25,000 nM
KD [5]: 66,000 ± 5000 nM
KD [6]: 44,000 ± 4000 nM
KD [7]: 7.8 ± 1.6 nM
KD [1]: 8.8 ± 0.5 nM
KD [8]: 5.4 ± 1.2 nM
KD [9]: 42,000 ± 2000 nM
KD [10]: 4100 ± 400 nM
KD [11]: 4.9 ± 1.2 nM
KD [3]: 2.2 ± 0.6 nM
KD [12]: 7500 ± 800 nM
Compound: O=C(COc1ccccc1)Nc1nc2[nH]cnc2c(=O)[nH]1

KD [1]: 240 ± 30 nM
Compound: O=c1[nH]cnc2nc[nH]c12
